{"source": "patent US20220023337A1", "about": "“USE OF CHROMIUM HISTIDINATE FOR TREATMENT OF CARDIOMETABOLIC DISORDERS” (NUTRITION 21, LLC, priority 2007, published 2022)", "key": {"subject having impotence": {"system": "subject having impotence", "assay": "Example 6: treatment of sexual dysfunction", "type": "in vivo", "conditions": "about 50-5000 μg daily, orally", "experimental": "A subject is identified as having impotence. The subject is orally administered between about 50 μg and 5000 μg chromium trihistidinate daily."}, "[1]": {"system": "subject with compromised renal function", "assay": "Example 10: treatment of renal disorders", "type": "in vivo", "conditions": "between 50 μg and 5000 μg daily", "experimental": "A subject is identified with compromised renal function. […] The subject is administered an effective amount of chromium trihistidinate daily, e.g. between 50 μg and 5000 μg chromium trihistidinate daily. After a period of time, the subject's renal function improves."}, "[2]": {"conditions": "rats, NSAID co-administered; cited from earlier work"}, "rats": {"system": "rats", "conditions": "cited from earlier work"}, "[3]": {"system": "subject having cardiometabolic syndrome", "assay": "Example 3: treatment of cardiometabolic syndrome", "type": "in vivo", "conditions": "between 50 μg and 5000 μg/day, orally", "experimental": "A subject is identified as having cardiometabolic syndrome. The subject presents with one or more symptoms associated with cardiometabolic syndrome such as obesity, hypertension, dyslipidemia, impaired glucose tolerance, diabetes, an increase in C-reactive protein, and increase in TNFα, an increase in IL-6, an increase in IL-10, or an increase in oxidative stress.\nThe individual is administered between 50 μg and 5000 μg chromium histidinate complex/day, orally. The chromium histidinate is administered orally."}, "Hep G2 cells [4]": {"system": "Hep G2 cells", "assay": "Media glucose levels of HepG2 cell cultures", "type": "cell-based, human", "conditions": "0.2 μM, in the absence of insulin; p<0.05 vs control", "experimental": "(§1) Hep G2 cells are liver cells derived from a human hepatoblastoma that is free of known hepatotropic viral agents. This cell line expresses a wide variety of liver-specific metabolic functions and is used as a model system to study cholesterol and triglyceride metabolism. The effects of chromium histidinate on triglyceride secretion and on media glucose levels, the HepG2 cell line was grown in culture media with or without insulin in the presence of 0, 0.2, 2, or 20 μM chromium histidinate. Media glucose levels and triglyceride levels were measured using standard protocols. Specifically, triglyceride levels were measured spectrophotometrically through hydrolysis by lipase and coupled enzyme reactions on the resulting glycerol. Glucose levels were measured spectrophotometrically using the glucose oxidase method, with a standard dilution curve serving to calibrate the measurements."}, "[5]": {"system": "subject with cardiovascular disease", "assay": "Example 8: treatment of cardiovascular disease", "type": "in vivo", "conditions": "about 50-5000 μg daily", "experimental": "(§2) A subject is identified with cardiovascular disease. […] The subject is provided between about 50 μg and 5000 μg chromium histidinate daily. After a period of time, the subject's arteriosclerosis, atherosclerosis, peripheral vascular disease, or coronary heart disease improves."}, "insulin resistant rats": {"system": "insulin resistant rats", "assay": "Glucose and lipid metabolism in insulin resistant rats fed high fat diet (groups 3 and 4)", "type": "in vivo, Wistar rats", "conditions": "approx. 110 mcg/kg body.d in water, 12 weeks", "experimental": "(§3) Wistar rats were reared at the temperature of (22±2° C.), humidity (55±5%) and a 12/12 h light/dark cycle. Pellet food and water were provided ad libitum.\n(§4) Fat-fed/STZ treated rats provide an animal model for type 2 diabetes that simulates the human syndrome, and is suitable for the testing of antidiabetic compounds (See, e.g., Reed et al. (2000) Metabolism 49(11):1390-1394). Rats fed a high fat diet can be used as a model system for insulin resistance. Ten Wistar rats (55 days old) in each group were treated as follows:\nGroup 3: Rats were fed high fat diet (40% of calories as fat) for 12 weeks.\nGroup 4: Rats were fed high-fat diet (40% of calories as fat) and chromium histidinate (approx. 110 mcg/kg body.d) was included into water for 12 weeks."}, "diabetic rats": {"system": "diabetic rats", "assay": "Glucose and lipid metabolism in high fat diet/streptozotocin diabetic rats (groups 5 and 6)", "type": "in vivo, Wistar rats", "conditions": "high-fat diet + STZ 40 mg/kg i.p. rats, 110-mcg/kg body.d in water, 10 weeks", "experimental": "as §3, §4\nGroup 5: Rats were fed high-fat diet (40% of calories as fat) for 2 weeks and then injected with streptozotocin (STZ, 40 mg/kg i.p.) for 12 weeks.\nGroup 6: Rats were fed high-fat diet (40% of calories as fat) for 2 weeks and then injected with streptozotocin (STZ, 40 mg/kg i.p.) and chromium histidinate was included into water at a concentration of 110-mcg/kg body.d for 10 weeks.\nBefore STZ injection glucose concentrations of rats were measured and compared to controls."}, "normal rats": {"system": "normal rats", "assay": "Glucose and lipid metabolism in normal rats fed standard diet (groups 1 and 2)", "conditions": "standard diet + chromium histidinate 12 weeks", "experimental": "as §3, §4\nGroup 1: Control rats were fed standard diet (12% of calories as fat) for 12 weeks.\nGroup 2: Control rats were fed standard diet+chromium histidinate for 12 weeks."}, "[6]": {"system": "subject having a dyslipidemia", "assay": "Example 14: treatment of dyslipidemia", "type": "in vivo", "conditions": "about 50-5000 μg daily, orally; one or more of the listed changes", "experimental": "A subject is identified as having a dyslipidemia. […] The subject is administered between about 50 μg and 5000 μg chromium histidinate daily, orally."}, "[7]": {"system": "subject with cardiovascular disease", "assay": "Example 9: treatment of cardiovascular disease with combination therapy", "type": "in vivo", "conditions": "about 50-5000 μg daily plus a second therapeutic for cardiovascular disease", "experimental": "as §2, with “daily. The subject is also provided a therapeutically effective amount of a second therapeutic for cardiovascular disease such as peripheral antiadrenergic therapy, antihypertensive drugs, vasodilators, inodilators, cardiac glycosides, antidysrhythmic drugs.” for “daily.”"}, "Hep G2 cells [8]": {"system": "Hep G2 cells", "assay": "Triglyceride secretion into culture media by HepG2 cells", "type": "cell-based, human", "conditions": "0.2 μM, in the presence of insulin; p<0.05 vs control", "experimental": "as §1"}, "[9]": {"system": "subject with a PPAR associated disorder", "assay": "Example 13: treatment of PPAR disorders", "type": "in vivo", "conditions": "about 50-5000 μg, orally, daily", "experimental": "A subject is identified with a PPAR associated disorder. The subject has one or more of the following symptoms or conditions: rheumatoid arthritis, multiple sclerosis, inflammatory bowel disease, breast, colon, or prostate cancer, low levels of blood, lymph and/or cerebrospinal fluid apoE and/or apo A-1, elevated serum VLDL cholesterol levels, elevated serum LDL cholesterol levels, elevated triglyceride levels, elevated serum apo B levels, or the like. The subject is administered between about 50 μg and 5000 μg chromium histidinate, orally, daily. After a period of time, the subject's symptoms improve."}, "[10]": {"system": "subject having insulin resistance", "assay": "Example 5: treatment of insulin resistance", "type": "in vivo", "conditions": "about 50-5000 μg daily, orally, in the form of a bar", "experimental": "A subject is identified as having insulin resistance. […] The subject is administered between about 50 μg and 5000 μg chromium polyhistidinate daily, orally, in the form of a bar."}, "[11]": {"system": "subject with diabetes or hyperglycemia", "assay": "Example 11: treatment of glucose metabolism disorders", "type": "in vivo", "conditions": "about 50-5000 μg daily, orally", "experimental": "A subject is identified with one or more glucose metabolism disorders such as diabetes or hyperglycemia. The subject is orally administered between about 50 μg and 5000 μg chromium polyhistidinate daily."}, "[12]": {"conditions": "cited from earlier work"}}, "note": "Like-named read-outs stand apart in the source and are kept apart here.", "data": [{"compound": "chromium trihistidinate", "values": [{"measurement": "sexual function", "setting": "subject having impotence", "result": "improved"}, {"measurement": "renal function", "setting": "[1]", "result": "improves"}]}, {"compound": "CC(=O)Oc1ccccc1C(=O)O", "note": "[aspirin]", "values": [{"measurement": "chromium absorption following oral administration of CrCl3", "setting": "[2]", "result": "facilitated"}]}, {"compound": "chromium picolinate", "values": [{"measurement": "toxic effects", "setting": "rats; rat, in vivo", "result": "without toxic effects"}]}, {"compound": "chromium histidinate", "values": [{"measurement": "symptoms associated with cardiometabolic syndrome", "setting": "[3]", "result": "reduction in one or more of the symptoms"}, {"measurement": "glucose in the media", "setting": "Hep G2 cells [4]", "result": "significant decrease"}, {"measurement": "arteriosclerosis, atherosclerosis, peripheral vascular disease, or coronary heart disease", "setting": "[5]", "result": "improves"}, {"measurement": "body weight", "setting": "insulin resistant rats", "result": "significantly lowers"}, {"measurement": "cortisol levels", "setting": "insulin resistant rats", "result": "decreases"}, {"measurement": "free fatty acid levels", "setting": "insulin resistant rats", "result": "decreases"}, {"measurement": "insulin levels", "setting": "insulin resistant rats", "result": "increases"}, {"measurement": "insulin sensitivity", "setting": "insulin resistant rats", "result": "increases"}, {"measurement": "serum glucose levels", "setting": "insulin resistant rats", "result": "lowers"}, {"measurement": "total serum cholesterol levels", "setting": "insulin resistant rats", "result": "decreases"}, {"measurement": "triglyceride levels", "setting": "insulin resistant rats", "result": "decreases"}, {"measurement": "body weight", "setting": "diabetic rats", "result": "significantly lowers"}, {"measurement": "cortisol levels", "setting": "diabetic rats", "result": "decreases"}, {"measurement": "free fatty acid levels", "setting": "diabetic rats", "result": "decreases"}, {"measurement": "insulin levels", "setting": "diabetic rats", "result": "increases"}, {"measurement": "insulin sensitivity", "setting": "diabetic rats", "result": "increases"}, {"measurement": "serum glucose levels", "setting": "diabetic rats", "result": "lowers"}, {"measurement": "total serum cholesterol levels", "setting": "diabetic rats", "result": "decreases"}, {"measurement": "triglyceride levels", "setting": "diabetic rats", "result": "decreases"}, {"measurement": "free fatty acid levels", "setting": "normal rats", "result": "decreases"}, {"measurement": "insulin levels", "setting": "normal rats", "result": "increases"}, {"measurement": "insulin sensitivity", "setting": "normal rats", "result": "increases"}, {"measurement": "serum chromium levels", "setting": "normal rats", "result": "increases"}, {"measurement": "serum glucose levels", "setting": "normal rats", "result": "lowers"}, {"measurement": "serum triglyceride levels", "setting": "normal rats", "result": "decreases"}, {"measurement": "total serum cholesterol levels", "setting": "normal rats", "result": "decreases"}, {"measurement": "serum HDL cholesterol levels", "setting": "[6]", "result": "increased"}, {"measurement": "serum LDL cholesterol levels", "setting": "[6]", "result": "decreased"}, {"measurement": "serum triglyceride levels", "setting": "[6]", "result": "decreased"}, {"measurement": "total serum cholesterol levels", "setting": "[6]", "result": "decreased"}, {"measurement": "arteriosclerosis, atherosclerosis, peripheral vascular disease, or coronary heart disease", "setting": "[7]", "result": "improves"}, {"measurement": "triacylglycerol (triglycerides secreted into culture media)", "setting": "Hep G2 cells [8]", "result": "significantly decreased"}, {"measurement": "symptoms of PPAR associated disorder", "setting": "[9]", "result": "improve"}]}, {"compound": "[Cl][Cr]([Cl])[Cl]", "note": "[chromium chloride]", "values": [{"measurement": "toxic effects", "setting": "rats; rats, levels several thousand times the upper limit of the ESADDI for chromium for humans (based on body weight)", "result": "without toxic effects"}]}, {"compound": "chromium polyhistidinate", "values": [{"measurement": "hyperinsulinemia", "setting": "[10]", "result": "decreased"}, {"measurement": "insulin function", "setting": "[10]", "result": "improved"}, {"measurement": "fasting and/or post-prandial glucose levels", "setting": "[11]", "result": "improvement"}]}, {"compound": "N[C@@H](Cc1c[nH]cn1)C(=O)O", "note": "[histidine]", "values": [{"measurement": "pKa", "setting": "[12]", "result": "~6.0"}]}]}
